Article PMC11178820, “Synthesis of novel aryl-substituted 2-aminopyridine derivatives by the cascade reaction of 1,1-enediamines with vinamidinium salts to develop novel anti-Alzheimer agents” (Scientific Reports, 2024)
Entries after “also recorded” stand apart in the source; their conditions may differ. Like-named read-outs stand apart in the source and are kept apart here.

Columns and labels:
BChE [1] = molecular target: T1, BChE (Homo sapiens, UniProt P06276); test: BChE inhibition, modified Ellman method; format: biochemical; settings: for inhibition at 50 µM: read-out: BChE % inhibition at 50 µM; for BChE inhibition, outcome in words: 50 µM screening
T1 sequence (P06276 29-602, species assumed): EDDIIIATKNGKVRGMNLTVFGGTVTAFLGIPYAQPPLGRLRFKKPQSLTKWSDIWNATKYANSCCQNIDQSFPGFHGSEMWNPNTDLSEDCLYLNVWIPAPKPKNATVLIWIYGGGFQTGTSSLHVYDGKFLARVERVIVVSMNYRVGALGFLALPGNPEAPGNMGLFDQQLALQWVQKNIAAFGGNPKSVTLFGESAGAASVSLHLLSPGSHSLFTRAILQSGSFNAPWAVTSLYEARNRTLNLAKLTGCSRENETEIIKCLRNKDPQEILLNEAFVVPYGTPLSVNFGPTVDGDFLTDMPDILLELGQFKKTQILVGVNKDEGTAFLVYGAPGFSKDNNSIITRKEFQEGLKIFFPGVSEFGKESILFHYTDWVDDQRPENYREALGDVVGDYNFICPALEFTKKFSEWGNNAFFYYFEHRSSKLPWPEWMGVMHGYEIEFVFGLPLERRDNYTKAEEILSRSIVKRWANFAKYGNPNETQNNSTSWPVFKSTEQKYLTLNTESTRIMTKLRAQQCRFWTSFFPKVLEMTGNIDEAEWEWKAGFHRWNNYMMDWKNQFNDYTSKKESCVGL
Procedure: (§1) Cholinesterase inhibitory activities of all analogs were evaluated spectrometrically using the modified Ellman method as previously reported. […] The absorbance of each well was measured at 415 nm using a microplate reader. IC50 and inhibition values were calculated with the software GraphPad Prism as the mean of three independent experiments and expressed as mean ± SEM[42],[43].

AChE [2] = molecular target: T2, AChE (Homo sapiens, UniProt P22303); test: biochemical; settings: for inhibition at 50 µM: read-out: AChE % inhibition at 50 µM
T2 sequence (P22303 32-614): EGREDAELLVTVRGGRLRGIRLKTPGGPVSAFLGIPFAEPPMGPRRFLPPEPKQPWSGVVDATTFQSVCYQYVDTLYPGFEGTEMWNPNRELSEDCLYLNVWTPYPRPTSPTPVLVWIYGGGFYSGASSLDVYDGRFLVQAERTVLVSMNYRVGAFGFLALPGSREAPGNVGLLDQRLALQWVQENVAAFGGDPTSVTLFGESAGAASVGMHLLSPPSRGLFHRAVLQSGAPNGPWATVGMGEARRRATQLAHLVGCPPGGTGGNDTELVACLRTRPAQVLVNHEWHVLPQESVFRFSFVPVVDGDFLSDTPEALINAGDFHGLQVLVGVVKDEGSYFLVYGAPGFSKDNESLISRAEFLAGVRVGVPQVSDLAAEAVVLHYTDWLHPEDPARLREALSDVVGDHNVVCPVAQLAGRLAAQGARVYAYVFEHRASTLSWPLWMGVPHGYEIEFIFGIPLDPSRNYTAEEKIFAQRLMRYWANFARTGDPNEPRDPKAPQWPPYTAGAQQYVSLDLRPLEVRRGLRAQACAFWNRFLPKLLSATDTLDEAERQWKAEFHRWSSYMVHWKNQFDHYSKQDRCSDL
Procedure: as §1

AChE [3] = molecular target: T2, AChE; test: Enzyme kinetic study against AChE (Lineweaver–Burk); format: biochemical
Procedure: To investigate the type of inhibition of AChE and BChE, kinetic studies of 3m were conducted using various concentrations of ATCI or BTCI as a substrate.
(§2) A Lineweaver–Burk plot was generated to identify the type of inhibition and the Michaelis–Menten constant (Km) value was determined from plot between reciprocal of the substrate concentration (1/[S]) and reciprocal of enzyme rate (1/V) over the various inhibitor concentrations[44],[45].

BChE [4] = molecular target: T1, BChE; test: Enzyme kinetic study against BChE (Lineweaver–Burk); format: biochemical
Procedure: as §2

hBChE = system: hBChE; parameters: method as in PMID 23078965; settings: previously reported; cited from earlier work
hAChE = system: hAChE; parameters: method as in PMID 23078965; settings: previously reported; cited from earlier work
BChE [5] = molecular target: T1, BChE; parameters: method as in doi:10.5530/ijper.52.4.75; settings: previously reported; unit inferred; cited from earlier work
AChE [6] = molecular target: T2, AChE; parameters: method as in doi:10.5530/ijper.52.4.75; settings: previously reported; unit inferred; cited from earlier work

For `COc1ccc(Nc2ncc(-c3ccccc3)cc2[N+](=O)[O-])cc1` [3a, N-(4-Methoxyphenyl)-3-nitro-5-phenylpyridin-2-amine], the inhibition at 50 µM (BChE [1]; 50 µM, mean ± S.E) was 22.1 ± 0.33% and the inhibition at 50 µM (AChE [2]; 50 µM, mean ± S.E) was 28.1 ± 3.93%.

`O=[N+]([O-])c1cc(-c2ccccc2)cnc1Nc1ccc(Cl)cc1` [3b, N-(4-Chlorophenyl)-3-nitro-5-phenylpyridin-2-amine] showed an inhibition at 50 µM (BChE [1]; 50 µM, mean ± S.E) of 27.5 ± 1.92% and an inhibition at 50 µM (AChE [2]; 50 µM, mean ± S.E) of 59.9 ± 11%.

For `COc1ccc(Nc2ncc(-c3ccc(F)cc3)cc2[N+](=O)[O-])cc1` [3c, 5-(4-Fluorophenyl)-N-(4-methoxyphenyl)-3-nitropyridin-2-amine], the “BChE inhibition, outcome in words” value (BChE [1]) was “almost inactive”, the inhibition at 50 µM (BChE [1]; 50 µM, mean ± S.E) was 3.4 ± 1.63% and the inhibition at 50 µM (AChE [2]; 50 µM, mean ± S.E) was 10.7 ± 2.31%.

`Cc1ccc(Nc2ncc(-c3ccc(F)cc3)cc2[N+](=O)[O-])cc1` [3d, 5-(4-Fluorophenyl)-3-nitro-N-(p-tolyl)pyridin-2-amine] showed an inhibition at 50 µM (BChE [1]; 50 µM, mean ± S.E) of 46.4 ± 2.42% and an inhibition at 50 µM (AChE [2]; 50 µM, mean ± S.E) of 39.4 ± 1.56%.

With `O=[N+]([O-])c1cc(-c2ccc(F)cc2)cnc1Nc1ccc(Cl)cc1` [3e, N-(4-Chlorophenyl)-5-(4-fluorophenyl)-3-nitropyridin-2-amine] the “BChE inhibition, outcome in words” value (BChE [1]) was “almost inactive”, the inhibition at 50 µM (BChE [1]; 50 µM, mean ± S.E) was 19.6 ± 1.49% and the inhibition at 50 µM (AChE [2]; 50 µM, mean ± S.E) was 19.3 ± 3.3%.

`COc1ccc(Nc2ncc(-c3ccc(Cl)cc3)cc2[N+](=O)[O-])cc1` [3f, 5-(4-Chlorophenyl)-N-(4-methoxyphenyl)-3-nitropyridin-2-amine] showed an inhibition at 50 µM (BChE [1]; 50 µM, mean ± S.E) of 31.7 ± 1.1% and an inhibition at 50 µM (AChE [2]; 50 µM, mean ± S.E) of 33 ± 1.86%.

`O=[N+]([O-])c1cc(-c2ccc(Cl)cc2)cnc1Nc1ccc(Cl)cc1` [3g, N,5-Bis(4-chlorophenyl)-3-nitropyridin-2-amine] showed an inhibition at 50 µM (BChE [1]; 50 µM, mean ± S.E) of 12.3 ± 0.99% and an inhibition at 50 µM (AChE [2]; 50 µM, mean ± S.E) of 17.8 ± 2.74%.

`Cc1ccccc1Nc1ncc(-c2ccc(Cl)cc2)cc1[N+](=O)[O-]` [3h, 5-(4-Chlorophenyl)-3-nitro-N-(o-tolyl)pyridin-2-amine] showed an inhibition at 50 µM (BChE [1]; 50 µM, mean ± S.E) of 14.6 ± 1.95% and an inhibition at 50 µM (AChE [2]; 50 µM, mean ± S.E) of 23.1 ± 8.61%.

`O=[N+]([O-])c1cc(-c2ccc(Cl)cc2)cnc1Nc1cccc2ccccc12` [3i, 5-(4-Chlorophenyl)-N-(naphthalen-1-yl)-3-nitropyridin-2-amine] showed an inhibition at 50 µM (BChE [1]; 50 µM, mean ± S.E) of 35.3 ± 5.14% and an inhibition at 50 µM (AChE [2]; 50 µM, mean ± S.E) of 39.7 ± 1.67%.

`COc1ccc(Nc2ncc(-c3ccc(Br)cc3)cc2[N+](=O)[O-])cc1` [3j, 5-(4-Bromophenyl)-N-(4-methoxyphenyl)-3-nitropyridin-2-amine] gave an inhibition at 50 µM (BChE [1]; 50 µM, mean ± S.E) of 46.1 ± 0.92% and an inhibition at 50 µM (AChE [2]; 50 µM, mean ± S.E) of 38.8 ± 3.27%.

For `O=[N+]([O-])c1cc(-c2ccc(Br)cc2)cnc1Nc1ccc(Cl)cc1` [3k, 5-(4-Bromophenyl)-N-(4-chlorophenyl)-3-nitropyridin-2-amine], the inhibition at 50 µM (BChE [1]; 50 µM, mean ± S.E) was 12.8 ± 1.7% and the inhibition at 50 µM (AChE [2]; 50 µM, mean ± S.E) was 27.8 ± 1.75%.

In the case of `Cc1ccc(Nc2ncc(-c3ccc(Br)cc3)cc2[N+](=O)[O-])cc1` [3l, 5-(4-Bromophenyl)-3-nitro-N-(p-tolyl)pyridin-2-amine], the inhibition at 50 µM (BChE [1]; 50 µM, mean ± S.E) is reported as 6.96 ± 0.74% and the inhibition at 50 µM (AChE [2]; 50 µM, mean ± S.E) is reported as 24.9 ± 5.01%.

With `CC(C)(C)c1cc[n+](-c2cnc(Nc3ccc(Cl)cc3)c([N+](=O)[O-])c2)cc1.[O-][Cl+3]([O-])([O-])[O-]` [3m, 4-(Tert-butyl)-6ʹ-((4-chlorophenyl)amino)-5'-nitro-[1,3'-bipyridin]-1-ium perchlorate] the IC50 (BChE [1]) was 20.7 ± 1.01 µM, the “selectivity ratio for BChE over AChE” value (BChE [1]) was 1.686 and the inhibition at 50 µM (BChE [1]) was 76.7 ± 6.01%. The “type of inhibition, AChE” value (AChE [3]; Lineweaver–Burk plot) was “mixed inhibition; also recorded: mix-type inhibition”, the Ki (AChE [3]; secondary plot of Lineweaver–Burk data, substrate ATCI, read-out: inhibition constant (Ki), AChE) was 8.92 µM and the IC50 (AChE [2]) was 34.8 ± 3.71 µM. For the same molecule, the inhibition at 50 µM (AChE [2]) was 74.3 ± 5.86%, the “type of inhibition, BChE” value (BChE [4]; Lineweaver–Burk plot) was “mixed type of inhibition; also recorded: mix-type inhibition” and the “Kis, BChE” value (BChE [4]; plot of 1/Vmax vs inhibitor concentration, substrate BTCI) was 46.27 µM. The Ki (BChE [4]; plot of slope vs inhibitor concentration, substrate BTCI) was 17.5 µM.

Molecule `Cc1ccccc1Nc1ncc(-c2cccc3ccccc23)cc1[N+](=O)[O-]` [3n, 5-(Naphthalen-1-yl)-3-nitro-N-(o-tolyl)pyridin-2-amine] has an inhibition at 50 µM (BChE [1]; 50 µM, mean ± S.E) of 38.9 ± 2.97% and an inhibition at 50 µM (AChE [2]; 50 µM, mean ± S.E) of 40.7 ± 2.6%.

Molecule `Cc1ccc(Nc2ncc(-c3cccc4ccccc34)cc2[N+](=O)[O-])cc1` [3o, 5-(Naphthalen-1-yl)-3-nitro-N-(p-tolyl)pyridin-2-amine] has an inhibition at 50 µM (BChE [1]; 50 µM, mean ± S.E) of 22.8 ± 2.7% and an inhibition at 50 µM (AChE [2]; 50 µM, mean ± S.E) of 35.6 ± 4.63%.

In the case of `O=[N+]([O-])c1cc(-c2cccc3ccccc23)cnc1Nc1ccc(Cl)cc1` [3p, N-(4-Chlorophenyl)-5-(naphthalen-1-yl)-3-nitropyridin-2-amine], the inhibition at 50 µM (BChE [1]; 50 µM, mean ± S.E) is reported as 11.7 ± 0.12% and the inhibition at 50 µM (AChE [2]; 50 µM, mean ± S.E) is reported as 21.4 ± 1.86%.

In the case of `O=[N+]([O-])c1cc(-c2cccc3ccccc23)cnc1Nc1cccc2ccccc12` [3q, N,5-Di(naphthalen-1-yl)-3-nitropyridin-2-amine], the inhibition at 50 µM (BChE [1]; 50 µM, mean ± S.E) is reported as 53.07 ± 0.42% and the inhibition at 50 µM (AChE [2]; 50 µM, mean ± S.E) is reported as 34 ± 2.39%.

For `N#Cc1cc(C#N)c(NCCCC2CCN(Cc3ccccc3)CC2)nc1N` [A], the IC50 (hBChE) is listed as 6.6 ± 0.7 µM, the IC50 (hAChE) is listed as 0.0094 ± 0.0004 µM and the “selectivity against hAChE than hBChE” value (hAChE) is listed as 703 fold.

For `O=C(N/N=C(/c1ccc(O)cc1)c1cccc(O)c1)Nc1ccncc1` [B], the IC50 (BChE [5]) is given as 6.44 ± 0.65 µM and the IC50 (AChE [6]) is given as 5.58 ± 0.016 µM.
